According to patent US7772260B2, “Imidazo[2,1-b]-1,3,4-thiadiazole sulfonamides” (Aegera Therapeutics Inc., priority 2001, dated 2010):
“Also recorded” adds a separate entry of the source.

Assays:
sciatic nerve = experiment: Sciatic nerve crush injury model; type: in vivo, Sprague Dawley rats; conditions: for functional recovery after sciatic nerve crush: 1 and 10 mg/kg
Text: The sciatic nerve crush model is a representative model of axonal repair and regeneration. The sciatic nerve is physically crushed with forceps at the mid-thigh; only the right leg is injured, the left leg serving as a control. The axons die from the crush point to their point of innervation. Functional loss of the axons is rapidly observed as the animals drag their right leg and the toes of the right leg no longer spread. Recovery is observed in approximately 28 days as the animals regain use of their right leg. More quantitative measurements of recovery include toe spread measurements between the digits 1 and 5 and digits 2 and 4, gait analysis and electrical conductivity from the toes to the injury site (see Example 161). Male Sprague Dawley rats were anaesthetized (halothane and buprenorphine) and the right hind leg was blunt dissected to expose the sciatic nerve at mid-thigh. The nerve was crushed twice for a total of 30 seconds using No.7 Dumont jeweller's forceps. The incision is sutured and the animals are allowed to recover for 28 days. Functional recovery was measured by gait, nerve conductance and toe spread measurements between digits 1 and 5 and digits 2 and 4.

SCG neurons [1] = experiment: Protection of SCG neurons from anti-NGF killing; type: cell-based, Sprague Dawley rats; conditions: Rattus norvegicus, Neuron; anti-NGF antibody, serum and NGF free 48 hours, Alamar Blue; +/−1 uM; read-out: IC(50), rescue from anti-NGF killing of SCG neurons
Description: Neurotrophins are critical to the growth, development, and survival of small fiber neurons of the PNS. SCG neurons are neurons of the PNS that undergo apoptosis upon NGF withdrawal. In a typical experiment SCG neurons are cultured in the presence of NGF, which induces survival and neurite out-growth. After 5 days the NGF is removed by either the addition of anti-NGF polyclonal antibody (Sigma) or by repeated washings (4 times) with NGF free media, resulting in the apoptosis of up to 90% of the neurons after 48 hours, as measured by MTS staining.
After 4 days the cells were treated with anti-NGF antibody (Sigma). At this time compound was added and the cells were maintained serum and NGF free for 48 hours, at which time viability was assessed using Alamar Blue (Medicorp) staining.

CA II = CA II (Homo sapiens, UniProt P00918); experiment: CA II inhibition; type: biochemical; conditions: read-out: IC(50), CA II inhibition
Description: CA II inhabition was measured using the protocol described by Pocker, Y.'Stone, J. Biochemistry 1967, 6, 668.

cortical neurons = experiment: Neuroprotection of cortical neurons in the presence of beta-amyloid; type: cell-based, Sprague Dawley rats; conditions: 10 uM compound, 10 uM 25-35 amyloid beta peptide, 48 hour
Description: Primary neuronal/glial cortical cultures were established from postnatal day 1 Sprague Dawley rats. Cerbral cortices were isolated and dissociated with 0.25% trypsin for 20 minutes at 37 degrees. The tissue was then triturated in PBS containing 0.1% bovine serum albumin and 0.2 mg/ml DNAse. Cells were plated in poly D-lysine coated 96 well plates at a density of 1e6 cells per mL. Cultures were maintained at 37 degrees in 5% C02/95% air for 2 weeks in Neurobasal (Gibco) supplemented with B27, glutamine, and penicillin/streptomycin. 5ng/mL AraC was added after 48 hours. After 2 weeks cells were exposed to 10 uM 25-35 amyloid beta peptide with and without 10 uM compound 76. After 2 days of treatment apoptotic cells were detected with Cy3-conjugated annexin V (Sigma).

SCG neurons [2] = experiment: cells; type: cell-based, Sprague Dawley rats; conditions: Rattus norvegicus, Neuron; Taxol™ (50 ng/mL), viability 48 hours later, MTS; read-out: IC(50), protection of SCG neurons from Taxol killing
Sprague Dawley rats = type: in vivo; conditions: rat, in vivo, 9 mg/kg
Description: Taxol™ commonly causes dose dependent peripheral neuropathies during cancer treatment. […] All of the Taxol™ treated animals developed peripheral neuropathies, characterized by ‘tip toe walking’. The extent of this neuropathy was analyzed by quantifying the refracted light captured by a video camera as the animals walked over a glass plate.
Adult Sprague Dawley rats were treated with Taxol™ (IP, 9 mg/kg in Cremophor EL and ethanol) twice weekly for 3 weeks (J. Neuro-Oncology (1999) 41: 107-116). Compound was administered I hour prior to Taxol™ treatment (IP, 1, 5 and 10 mg/kg in hydroxypropyl-β-cyclodextrin). Taxol™ treated control animals were treated with saline solution at the same time of Compound treated animals. Non-treated control animals were treated with saline solution as above. Weight gain was measured every second day, starting at Day 1. Gait analysis was measured by quantifying the refracted light captured by a video camera as the animals walked over a glass plate, 2 days after the final Taxol™ treatment (Physiology and Behavior (1994), 55(4): 723-726; Med. Sci. Res. (1988) 16: 901-902). […] H/M wave recovery was analyzed using standard procedures 2 days after the final Taxol™ treatment (Muscle Nerve (1998) 21: 1405-1413; Annals of Neurology (1998) 43 (1): 46-55).
Male Spraugue Dawley rats were treated with 50% HPDC vehicle (veh/veh), compound I dissolved in 50% HPDC at 1, 5, or 10 mg/kg (veh/1, veh/5, veh/10, respectively), or Taxol™ (9 mg/kg)+compound 1 dissolved in 50% HPDC at 1, 5, and 10 mg/kg (Tax/1, Tax/5, Tax/10) according to the dosing regime described in Example 160. Weight measurements were made ever other day.
Two days after the completion of drug treatments animal walking gait was analyzed according to a) total imprint area, and b) total number of contact points.
FIG. 6 illustrates the effect of Compound 1 on H-reflex amplitude, a measurement of H/M wave disturbance induced by Taxol™. Two days after the completion of drug treatments, the dorsal root ganglia and attached nerves were dissected bilaterally from L4 and L5 and their H/M wave conductance measured.

SCG neurons [3] = experiment: In vitro protection of SCG neurons from vincristine killing; type: cell-based, Sprague Dawley rats; conditions: vincristine 100 ng/mL
Text: Similarly, vincristine and vinblastine are commonly used anti-tumour agents whose mode of action involve tubulin binding.

Structure (SMILES): COc1cccc(-c2ccc(-c3cn4nc(S(N)(=O)=O)sc4n3)cc2)c1 [Compound 76, 6-(4-(3-methoxyphenyl)phenyl)imidazo[2,1-b]-1,3,4-thiadiazole-2-sulfonamide]
- functional recovery after sciatic nerve crush (sciatic nerve): improved recovery
- recovery in toe spread area (inner toe spread) (sciatic nerve; versus vehicle control): induced increased recovery
- IC50 (SCG neurons [1]): 5 µM
- IC50 (CA II): 0.526 µM
- annexin V positive (apoptotic) cells (cortical neurons): prevents the occurrence of annex in V stained cells; also recorded: prevented the appearance of annexinV positive cells
- IC50 (SCG neurons [2]): 2 µM

Structure (SMILES): NS(=O)(=O)c1nn2cc(-c3ccc(-c4cccc(C(F)(F)F)c4)cc3)nc2s1 [Compound 81, 6-(4-(3-trifluoromethylphenyl)phenyl)imidazo[2,1-b]-1,3,4-thiadiazole-2-sulfonamide]
- IC50 (SCG neurons [1]): 5 µM
- IC50 (CA II): 1.58 µM
- IC50 (SCG neurons [2]): 3 µM

Structure (SMILES): NS(=O)(=O)c1nn2cc(-c3ccc(-c4ccc(C(F)(F)F)cc4)cc3)nc2s1 [Compound 82, 6-(4-(4-trifluoromethylphenyl)phenyl)imidazo[2,1-b]-1,3,4-thiadiazole-2-sulfonamide]
- IC50 (SCG neurons [1]): 25 µM
- IC50 (CA II): 5.43 µM
- IC50 (SCG neurons [2]): 2 µM

Structure (SMILES): NS(=O)(=O)c1nn2cc(-c3ccc(Oc4ccccc4)cc3)nc2s1 [Compound 87, 6-(4-phenoxyphenyl)imidazo[2,1-b]-1,3,4-thiadiazole-2-sulfonamide]
- IC50 (SCG neurons [1]): 10 µM
- IC50 (CA II): 0.128 µM
- IC50 (SCG neurons [2]): 5 µM

Structure (SMILES): NS(=O)(=O)c1nn2cc(-c3ccc(Oc4ccc([N+](=O)[O-])cc4)cc3)nc2s1 [Compound 99, 6-(4-(4-nitrophenoxy)phenyl)imidazo[2,1-b]-1,3,4-thiadiazole-2-sulfonamide]
- IC50 (SCG neurons [1]): 7 µM
- IC50 (CA II): 0.914 µM
- IC50 (SCG neurons [2]): 2 µM

Structure (SMILES): NS(=O)(=O)c1nn2cc(-c3cc4ccccc4o3)nc2s1 [Compound 111, 6-(Benzo[b]furan-2-yl)imidazo[2,1-b]-1,3,4-thiadiazole-2-sulfonamide]
- functional recovery after sciatic nerve crush (sciatic nerve): improved recovery
- IC50 (SCG neurons [1]): 7 µM
- IC50 (CA II): 53.2 µM
- IC50 (SCG neurons [2]): 2 µM

Structure (SMILES): CC(=O)O[C@H]1C(=O)[C@@]2(C)[C@H]([C@H](OC(=O)c3ccccc3)[C@]3(O)C[C@H](OC(=O)[C@H](O)[C@@H](NC(=O)c4ccccc4)c4ccccc4)C(C)=C1C3(C)C)[C@]1(OC(C)=O)CO[C@@H]1C[C@@H]2O [Taxol™, reference compound]
- reduction in foot-pad contact as compared to control animals (Sprague Dawley rats): 46%
- weight gain over a thirteen day period (Sprague Dawley rats): no weight gain

Structure (SMILES): CC[C@]1(O)C[C@H]2CN(CCc3c([nH]c4ccccc34)[C@@](C(=O)OC)(c3cc4c(cc3OC)N(C=O)[C@H]3[C@@](O)(C(=O)OC)[C@H](OC(C)=O)[C@]5(CC)C=CCN6CC[C@]43[C@@H]65)C2)C1 [vincristine, reference compound]
- apoptosis of cultured SCG neurons (SCG neurons [3]): ≥ 80%
